Type in all cases: functional
For assay [1], the target named is Leukotriene B4 receptor 1 (Homo sapiens) (UniProt Q15722). The assay is described as follows: Antagonistic activity against Leukotriene B4 receptor by using [3H]LTB4 as a radioligand at a concentration of 10e-6 M.
For assay [2] the target is unchanged. Nature of the assay: Antagonistic activity against Leukotriene B4 receptor by using [3H]LTB4 as a radioligand at a concentration of 10e-5 M.
For assay [3] the target is unchanged. The assay is described as follows: Antagonistic activity against Leukotriene B4 receptor by using [3H]LTB4 as a radioligand at a concentration of 10e-7 M.

Molecules are shown by their SMILES.

Sequence of Leukotriene B4 receptor 1 (Homo sapiens) (Q15722 whole entry): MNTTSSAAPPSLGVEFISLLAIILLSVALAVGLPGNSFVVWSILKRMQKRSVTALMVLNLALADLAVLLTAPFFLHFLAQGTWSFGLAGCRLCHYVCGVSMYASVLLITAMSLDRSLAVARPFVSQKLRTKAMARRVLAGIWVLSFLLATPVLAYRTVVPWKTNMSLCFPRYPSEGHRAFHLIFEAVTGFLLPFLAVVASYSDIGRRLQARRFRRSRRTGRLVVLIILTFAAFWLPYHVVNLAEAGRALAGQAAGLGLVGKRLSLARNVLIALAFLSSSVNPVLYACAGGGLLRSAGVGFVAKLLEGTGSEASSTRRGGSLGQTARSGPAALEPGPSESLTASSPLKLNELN

Take `CCCCCCCCCCOc1ccc(C(O)c2cccc(C(=O)O)c2)cc1CCC(=O)O` (stereo unspecified): the inhibition in assay [1] was 55%; in assay [2] it was 91%.
Regarding `CCCCCCCCCCOc1ccc(C(=O)c2cccc(-c3nnn[nH]3)c2)cc1Cc1nnn[nH]1`, the inhibition in assay [1] amounted to 20%; in assay [2], 81%.
Consider `CCCCCCCCCCOc1ccc(Cc2cccc(C(=O)O)c2)cc1CCC(=O)O`, for which the inhibition in assay [1] came to 41%; in assay [2], 88%.
Take `CCCCCCCCCCOc1ccc(C(=O)c2ccc(C(=O)O)cc2)cc1CC(=O)O`: the inhibition in assay [1] was found to be 35%; in assay [2] it was 76%.
Turning to `CCCCCCCCCCOc1ccc(C(=O)c2cccc(Cc3nnn[nH]3)c2)cc1CCC(=O)O`, the inhibition is 68% in assay [1] and 99% in assay [2].
With `O=C(O)CCc1cc(S(=O)(=O)c2cccc(C(=O)O)c2)ccc1OCCCCCCc1ccccc1`, the inhibition in assay [1] was 79%; in assay [2], 100%; in assay [3], 24%.
For `CCCCCCCCCCOc1ccc(C(=O)c2ccccc2C(=O)O)cc1CC(=O)O`, the inhibition was determined as 7% in assay [1] and 60% in assay [2].
Turning to `CCCCCCCCCCOc1ccc(C(=O)c2cccc(C#N)c2)cc1CC#N`, the inhibition amounted to 0% in assay [1] and 3% in assay [2].
Turning to `CCCCCCCCCCOc1ccc(C(=O)CCCC(=O)O)cc1CC(=O)O`, the inhibition stood at 2% in assay [1] and 39% in assay [2].
Regarding `CCCCCCCCCCOc1ccc(C(=O)c2cccc(S(=O)(=O)NC)c2)cc1CCC(=O)O`, the inhibition in assay [1] was 9%; in assay [2], 22%.
On to `O=C(O)CCc1cc([S+]([O-])c2cccc(C(=O)O)c2)ccc1OCCCCCCc1ccccc1` (stereo unspecified), for which the inhibition in assay [1] came out at 71%; in assay [2], 79%; in assay [3], 37%.
As for `CCCCCCCCCCOc1ccc(C(=O)c2cccc(C(=O)O)c2)cc1CCC(=O)O`, the inhibition in assay [1] came out at 60%; in assay [2] it was 95%.
Turning to `CCCCCCCCCCOc1ccc(C(O)c2cccc(C(=O)O)c2)cc1CC(=O)O` (stereo unspecified), the inhibition in assay [1] is 28%; in assay [2] it was 75%.
As for `O=C(O)CCc1cccc(NC(=O)c2cccc(C(=O)O)c2)c1OCCCCCCc1ccccc1`, the results for the inhibition in assay [1] and in assay [2] were 0% and 24%, respectively.
Taken in the same sequence, the figures for `CCCCCCCCCCOc1ccc(Oc2cccc(C(=O)O)c2)cc1CCC(=O)O` were 41% and 88%.
For the molecule `O=C(O)CCc1cc(NC(=O)c2cccc(C(=O)O)c2)ccc1OCCCCCCc1ccccc1`, the results for the inhibition in assay [1] and in assay [2] were 73% and 98%, respectively.
The corresponding values for `CCCCCCCCCCOc1ccc(C(=O)c2cccc(C(=O)O)c2)cc1C(=O)O` are 21% and 76%.
On to `CCCCCCCCCCOc1ccc(C(=O)c2cccc(C(=O)O)c2)cc1CCc1nnn[nH]1`, for which the figures for the inhibition in assay [1] and in assay [2] were 55% and 96%, respectively.
For the molecule `CCCCCCCCCCOc1ccc(C(=O)c2cccc(C(=O)OCC)c2)cc1CC(=O)OCC`, the inhibition in assay [1] and in assay [2] was 0% throughout.
As to `CCCCCCCCCCOc1ccc(C(=O)c2cccc(C(=O)O)c2)cc1Cc1nnn[nH]1`, the values for the inhibition in assay [1] and in assay [2] were 34% and 83%, respectively.
As to `CCCCCCCCCCOc1ccc(C(=O)c2cccc(C(=O)O)c2)cc1CCCC(=O)O`, the inhibition in assay [1] came out at 52%; in assay [2] it was 89%.
Consider `CCCCCCCCCCOc1ccc(C(=O)c2ccccc2)cc1CC(=O)O`, for which the inhibition is 1% in assay [1] and 24% in assay [2].
Taken in the same sequence, the figures for `CCCCCCCCCCOc1ccc(C(O)c2cccc(C(=O)O)c2)cc1` (stereo unspecified) were 3% and 0%.
Consider `CCCCCCCCCCOc1ccc(C(=O)c2cccc(C(=O)NC)c2)cc1CCC(=O)NC`, for which the inhibition in assay [1] and in assay [2] was 0% throughout.
As to `CCCCCCCCCCOc1ccc(C(=O)c2cccc(-c3nn[nH]n3)c2)cc1CC(=O)O`, the inhibition in assay [1] was 28%; in assay [2], 93%.
Consider `CCCCCCCCCCOc1ccc(C(=O)c2cccc(C(=O)OCC)c2)cc1Cc1nnn[nH]1`, for which the figures for the inhibition in assay [1] and in assay [2] were 14% and 0%, respectively.
As for `CCCCCCCCCCOc1ccc(C(=O)Cc2ccccc2C(=O)O)cc1CCC(=O)O`, the results for the inhibition in assay [1] and in assay [2] were 53% and 95%, respectively.
Taken in the same sequence, the figures for `CCCCCCCCCCOc1ccc(C(O)c2ccc(C(=O)O)cc2)cc1CC(=O)O` (stereo unspecified) were 15% and 59%.
As for `CCCCCCCCCCOc1ccc(C(=O)c2cccc(C(=O)O)c2)cc1CC(=O)O`, the results for the inhibition in assay [1] and in assay [2] were 27% and 73%, respectively.
Take `CCCCCCCCCCOc1ccc(C(=O)c2cccc([N+](=O)[O-])c2)cc1CCC(=O)O`: the inhibition was found to be 0% in assay [1] and 13% in assay [2].
The corresponding values for `C=C(c1cccc(C(=O)O)c1)c1ccc(OCCCCCCCCCC)c(CCC(=O)O)c1` are 39% and 71%.
As to `CCCCCCCCCCOc1ccc(C(=O)c2cccc(-c3nn[nH]n3)c2)cc1CCC(=O)OCC`, the inhibition was 1% in assay [1] and 0% in assay [2].
On to `CCCCCCCCCCOc1ccc(C(OCC)c2cccc(C(=O)O)c2)cc1CCC(=O)O` (stereo unspecified), for which the inhibition in assay [1] was determined as 26%; in assay [2], 78%.
Taken in the same sequence, the figures for `CCCCCCCCCCOc1ccc(C(=O)c2cccc(C(=O)O)c2)c(CC(=O)O)c1` were 23% and 74%.
As to `CCCCCCCCCCOc1ccc(C(=O)c2cccc(-c3nn[nH]n3)c2)cc1CCC(=O)O`, the inhibition is 71% in assay [1] and 98% in assay [2].
For `O=C(O)CCc1cc(Sc2cccc(C(=O)O)c2)ccc1OCCCCCCc1ccccc1`, the results for the inhibition in assay [1], in assay [2] and in assay [3] were 67%, 102% and 29%, respectively.
With `CCCCCCCCCCOc1ccc(/C(=N\O)c2cccc(C(=O)O)c2)cc1CCC(=O)O`, the inhibition in assay [1] worked out at 61%; in assay [2] it was 92%.
As for `CCCCCCCCCCOc1ccc(C(=O)c2ccccc2CC(=O)O)cc1CCC(=O)O`, the inhibition in assay [1] is 79%; in assay [2], 100%.
With `O=C(O)CCc1cc(/C(=N\O)c2cccc(C(=O)O)c2)ccc1OCCCCCCc1ccccc1`, the inhibition in assay [1] worked out at 84%; in assay [2], 96%; in assay [3] it was 30%.
On to `CCCCCCCCCCOc1ccc(C(=O)c2cccc(C(=O)O)c2)c(O)c1`, for which the inhibition in assay [1] was determined as 13%; in assay [2], 19%.
With `O=C(O)CCc1cc(C(=O)c2cccc(C(=O)O)c2)ccc1OCCCCCCc1ccccc1`, the inhibition was determined as 85% in assay [1] and 100% in assay [2].

Broadly, the inhibition is the relative decrease from the control value, in per cent.

Source of the values: ChEMBL document CHEMBL1124983, “Benzophenone dicarboxylic acid antagonists of leukotriene B4. 1. Structure-activity relationships of the benzophenone nucleus” (J Med Chem, 1990).
